Experimental data published in patent US20220365069A1, “ATP-BASED CELL SORTING AND HYPERPROLIFERATIVE CANCER STEM CELLS” (LUNELLA BIOTECH, INC., priority 2019, published 2022).

Legend:
ATP-low MCF7 cells = assay: 3D-mammosphere assay, drug sensitivity of ATP-low MCF7 sub-population; format: cell-based, human
Description: (§1) MCF7 cells in the ATP-high subpopulation show a multi-drug resistance phenotype. The 3D-mammosphere assay was used to explore the differential sensitivity of ATP-high and ATP-low MCF7 cell sub-populations to four different classes of drugs, using as a functional readout of drug-resistance. The drug classes include Tamoxifen, doxycycline, DPI, and Palbociclib.
(§2) Flow Cytometry after Vital Staining with ATP-Red 1: Human breast cancer cell lines were first grown either as a 2D-monolayer or as 3D-spheroids. Then the cells were collected and dissociated into a single-cell suspension, prior to analysis or sorting by flow-cytometry with a SONY SH800 Cell Sorter. Briefly, ATP-high and ATP-low sub-populations of cells were isolated after vital staining with the probe ATP-Red 1. The ATP-high and ATP-low cell sub-populations were selected by gating, within the ATP-Red 1 signal. Unless otherwise stated, cells with the lowest (bottom 5% or 10%) fluorescent signal, or the highest (top 5% or 10%) fluorescent signal, were collected as ATP-low and ATP-high, respectively. The cells outside the gates were discarded during sorting, due to the gate settings. However, such settings are often required to ensure high-purity during sorting. Data were analyzed with FlowJo 10.1 software.
(§3) 3D Anchorage Independent Growth Assay: A single cell suspension was prepared using enzymatic (lx Trypsin-EDTA, Sigma Aldrich, cat. #T3924), and manual disaggregation (25 gauge needle). Five thousand cells were plated with in mammosphere medium (DMEM-F12/B27/20ng/m1 EGF/PenStrep), under non-adherent conditions, in six wells plates coated with 2-hydroxyethylmethacrylate (poly-HEMA, Sigma, cat. #P3932). Cells were grown for 5 days and maintained in a humidified incubator at 37° C. at an atmospheric pressure in 5% (v/v) carbon dioxide/air. After 5 days, 3D spheroids with a diameter greater than 50 μm were counted using a microscope, fitted with a graticule eye-piece, and the percentage of cells which formed spheroids was calculated and normalized to one (1=100% MFE; mammosphere forming efficiency). Mammosphere assays were performed in triplicate and repeated three times independently.

ATP-high MCF7 cells = assay: 3D-mammosphere assay, drug sensitivity of ATP-high MCF7 sub-population; format: cell-based, human
Description: as §1, §2
as §3, with “Mammosphere assays were performed in triplicate and repeated three times independently.” left out

## c1ccc2c(c1)[I+]c1ccccc1-2 [DPI, diphenyleneiodonium]
ATP-low MCF7 cells; ATP-low cells, 100 nM
  reduction of 3D-mammosphere formation: > 90%
ATP-high MCF7 cells; ATP-high cells, 100 nM
  reduction of 3D-mammosphere formation: ~55%

## CC(=O)c1c(C)c2cnc(Nc3ccc(N4CCNCC4)cn3)nc2n(C2CCCC2)c1=O [Palbociclib]
ATP-low MCF7 cells; ATP-low cells, 12.5 nM
  reduction of 3D-mammosphere formation: ~75%
ATP-high MCF7 cells; ATP-high cells, 12.5 nM
  reduction of 3D spheroid formation: -50%

## CC/C(=C(\c1ccccc1)c1ccc(OCCN(C)C)cc1)c1ccccc1 [Tamoxifen]
ATP-low MCF7 cells; ATP-low MCF7 cells (bottom 5%), 1 μM
  reduction of 3D-mammosphere formation: ~40%
ATP-low MCF7 cells; ATP-low MCF7 cells (bottom 5%), 5 μM
  reduction of 3D-mammosphere formation: > 90%
ATP-high MCF7 cells; ATP-high MCF7 cells (top 5%), 5 μM
  3D-mammosphere formation, of the vehicle-treated control levels: > 80%
